Test results published in PubChem BioAssay AID2060511 (Molecular Pharmacology Branch, DTP, NCI, 2025).
“And” between values parts separate entries of the source, which are not always exact repeats. Identical values can stand only once.

System: 422866-222-R5-J1-PDC spheroids with HUVEC/MSC, viability
Assay: Anticancer human tumor 422866-222-R5-J1-PDC patient-derived pancreatic adenocarcinoma cell line growth inhibition [GQUAD]
Conditions: for viability, T/C: stronger effect = lower value
Source text: DNA G-quadruplex Stabilizer Agents in Combinations in Complex Spheroids
A high-throughput screen of multi-cell type tumor spheroids was designed to identify active combinations of DNA G-quadruplex stabilizer agents and targeted small molecules. Complex spheroids include a stromal component modeled by human endothelial cells (HUVEC) and fibroblasts modeled by human mesenchymal stem cells (MSCs). The concentration ranges selected for each drug and investigational agent were based upon clinically achievable concentrations if the clinical Cmax of the agent was known.
Compounds. The drugs and investigational agents: pidnarulex (CX-5461; NSC782164), APTO-253 (NSC789042), BRACO-19 (NSC847499), peposertib (NSC802822), ceralasertib (NSC780249), elimusertib (NSC800525), camonsertib (NSC841442), AZD-1390 (NSC803789), olaparib (NSC753686), talazoparib (NSC767125), ART-558 (NSC835418), sotorasib (NSC818433), MRTX-1133 (NSC836407), SN-38 (NSC673596), topotecan (NSC609699), etoposide (NSC141540), doxorubicin (NSC123127), gemcitabine (NSC613327), 5-fluorouracil (NSC19893), paclitaxel (NSC125973), vemurafenib (NSC761431), panobinostat (NSC761190), R-306465 (JNJ-16241199; NSC773264), adavosertib (NSC754352), TP-3654 (NSC805149), carboplatin (NSC241240), KSQ-4279 (NSC840948), and staurosporine (NSC755774) were obtained from the National Cancer Institute (NCI) Developmental Therapeutics Program Chemical Repository (34). The FDA-approved anticancer drug set is available from the NCI Developmental Therapeutics Program. […] The stock solutions were prepared in dimethyl sulfoxide (DMSO, Sigma-Aldrich, St. Louis, MO, cat. D2650) at 800-fold the tested concentration and stored at -70 degrees C prior to their use. All drugs and investigational agents were tested over a range starting from a high concentration at or near the clinical Cmax and decreasing in half-log increments. If the clinical Cmax for an agent had not been determined, the highest concentration tested was 10 microM.
2.3 Cell Culture. All cells were maintained in an incubator at 37 degrees C and 5% CO2 with 95% humidity. The PDC lines were cultured according to standard operating procedures established by the NCI PDMR. All PDCs were thawed and cultured in Matrigel-coated flasks prepared with a working solution of 1X Ham's F-12 nutrient mix, without supplementation (Invitrogen, cat. 11765054), 100 U/mL penicillin-streptomycin (Invitrogen, cat. 15140122), and 2.5% Matrigel (Corning Inc., cat. 354248) for the first three passages. The 857933-349-R-J2-PDC line was cultured in 6C/Colon 1B media, which includes advanced DMEM/F-12 (Thermo Fisher Scientific, cat. 12634028), 10 mM HEPES (Thermo Fisher Scientific, cat. 15630080), 1X GlutaMAX supplement (Thermo Fisher Scientific, cat. 35050061), 0.1 mg/mL primocin (InvivoGen, cat. ant-pm-2), 10% defined fetal bovine serum, heat inactivated (HyClone Laboratories Inc., cat. SH30070.03HI), 50% L-WRN conditioned media (ATCC, cat. CRL-3276), 1.25 mM N-Acetyl-L-cysteine (Sigma-Aldrich, cat. A9165), 10 mM nicotinamide (Sigma-Aldrich, cat. N0636), 1X B-27 supplement (Thermo Fisher Scientific, cat. 17504044), 1X N-2 supplement (Thermo Fisher Scientific, cat. 17502048), 10 microM Y-27632 dihydrochloride (Tocris Bioscience, cat. 1254), and 50 ng/mL human EGF recombinant protein (Thermo Fisher Scientific, cat. PHG0311). The 485176-168-R4-J1-PDC line was cultured in Panc media, which includes all 6C/Colon 1B media components plus 100 ng/mL human FGF-10 (Thermo Fisher Scientific, cat. 100-26), 500 nM SB-431542 (Selleckchem, cat. S1067), and gastrin (Tocris, cat. 3006).
[…]
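Note: spheroids exposed to compounds for seven days before reading.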
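Throughout, for viability, T/C: percent viability relative to DMSO vehicle control taken as 100%.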

Row | Structure (SMILES) | viability, T/C (compound 0.0316 µM) | viability, T/C (compound 0.1 µM) | viability, T/C (compound 0.316 µM) | viability, T/C (compound 1 µM) | viability, T/C (compound 3.16 µM) | viability, T/C (compound 10 µM) | IC50 (curve of compound) | viability, T/C (compound 0.000999 µM) | viability, T/C (compound 0.00316 µM) | viability, T/C (compound 0.00999 µM) | viability, T/C (compound 0.0999 µM) | IC50 (compound alone, run of 04/22/2024) [nM]
1 | C=CC(=O)N1CCN(c2nc(=O)n(-c3c(C)ccnc3C(C)C)c3nc(-c4c(O)cccc4F)c(F)cc23)C(C)C1 (stereo unspecified) | 36.5% and 39.1% and 37% | 32.9% and 29.9% and 28.5% | 26.3% and 28.8% and 27.6% | 27.3% and 26.2% and 23% | 28.3% and 28.8% and 27.6% | 29.3% and 30.3% and 27.3% | < 31.6 nM |  |  |  |  | 
2 | CC(C)n1c(=O)n(C)c2cnc3cc(F)c(-c4ccc(OCCCN5CCCCC5)nc4)cc3c21 | 99.2% and 87.6% and 100% | 80.5% and 101% and 90.1% | 110% and 104% and 113% | 97.4% and 95.7% and 97.5% | 85.5% and 89.8% and 90.1% | 58.6% and 62.1% and 64.2% | > 10000 nM |  |  |  |  | 
3 | CC1COCCN1c1cc(-c2ccnn2C)c2ccnc(-c3ccn[nH]3)c2n1 (stereo unspecified) | 80.3% and 71.6% and 81.9% | 63.1% and 61.5% and 48.7% | 47.8% and 50% and 45.2% | 45% and 40.2% and 45.6% | 63.9% and 81.7% and 45% | 81.2% and 80.8% and 88.8% |  |  |  |  |  | 
4 | CC1COCCN1c1cc(C2(O)CC3CCC(C2)O3)c2cnn(-c3ccn[nH]3)c2n1 (stereo unspecified) | 79.2% and 81.7% and 79.9% | 44.1% and 40% and 47.8% | 42.2% and 37.5% and 56.3% | 57.8% and 66.2% and 79.9% | 89.3% and 91.2% and 80.4% | 90.9% and 96% and 90.3% | > 10000 nM |  |  |  |  | 
5 | CC1COCCN1c1cc(C2(S(C)(=N)=O)CC2)nc(-c2ccnc3[nH]ccc23)n1 (stereo unspecified) | 81.8% and 101% and 93.1% | 90.2% and 107% and 98.3% | 105% and 97.1% and 114% | 70.9% and 82.1% and 91.5% | 43% and 44.8% and 50.8% | 38% and 39.5% and 36.4% | 2210 nM and 2770 nM and 3240 nM |  |  |  |  | 
6 | CC[C@@]1(O)C(=O)OCc2c1cc1n(c2=O)Cc2cc3c(CN(C)C)c(O)ccc3nc2-1 | 75.4% and 74.9% and 70.9% |  | 42.4% and 50.6% and 38.1% |  |  |  | 80.8 nM and 258 nM and 67.7 nM | 83.5% and 106% and 100% | 90.9% and 90.2% and 96.4% | 95.7% and 88.8% and 103% | 45.5% and 52.7% and 40.6% | 
7 | CCc1c2c(nc3ccc(O)cc13)-c1cc3c(c(=O)n1C2)COC(=O)[C@]3(O)CC | 36.8% and 46.3% and 25.2% |  | 34% and 43.8% and 29.1% |  |  |  | < 0.999 nM and 1.17 nM and 1.64 nM | 53.2% and 55.8% and 56.2% | 38.6% and 47.6% and 39.6% | 42.5% and 37.8% and 43.5% | 33.3% and 47.4% and 35.1% | 
8 | CN(C)c1ccc(Nc2c3ccc(NC(=O)CCN4CCCC4)cc3nc3cc(NC(=O)CCN4CCCC4)ccc23)cc1 | 96.4% [middle of 12 runs] | 96.8% [middle of 12 runs] |  | 90.4% [middle of 12 runs] | 96% [middle of 12 runs] |  |  |  |  |  |  | > 10000
9 | COc1cc(C2c3cc4c(cc3C(OC3OC5COC(C)OC5C(O)C3O)C3COC(=O)C23)OCO4)cc(OC)c1O (stereo unspecified) | 102% and 106% and 103% | 84% and 84.1% and 90.4% | 72.1% and 81.7% and 80.7% | 62.7% and 51.7% and 55.9% | 40.4% and 40.3% and 45% | 38% and 35.9% and 40.2% | 2160 nM and 1550 nM and 2000 nM |  |  |  |  | 
10 | COc1ccc([C@@H](O)c2cc(-c3ncnc4cc(N5CCOCC5)ccc34)c(F)cc2Cl)nn1 | 82.4% and 103% and 110% | 76.2% and 78.4% and 99% | 81.6% and 86% and 90.4% | 63.3% and 76.9% and 70.8% | 51.5% and 44.1% and 60.7% | 36.9% and 35.1% and 47.2% | 3150 nM and 2620 nM and 7880 nM |  |  |  |  | 
11 | COc1cccc2c1C(=O)c1c(O)c3c(c(O)c1C2=O)CC(O)(C(=O)CO)CC3OC1CC(N)C(O)C(C)O1 (stereo unspecified) | 94.3% and 90.9% and 92.6% | 58.5% and 62.5% and 78.8% | 61.9% and 57.1% and 68.5% | 41.8% and 51.2% and 47.5% | 35.5% and 35.9% and 29.4% | 32% and 40.5% and 31.3% | 421 nM and 585 nM and 812 nM |  |  |  |  | 
12 | Cc1[nH]c2ccccc2c1CCNCc1ccc(/C=C/C(=O)NO)cc1 | 95.7% and 94.4% and 76.5% |  | 86.2% and 55.7% and 46.1% |  |  |  | > 316 nM and 254 nM | 94.9% and 82.3% and 89.6% | 90.6% and 106% and 89.9% | 110% and 121% and 100% | 88.5% and 62.9% and 66.2% | 
13 | Cc1cccc(N(C)C(=O)C2C(O)CCN2c2nc(C)cc(C(F)(F)F)c2C#N)c1 (stereo unspecified) | 96.3% and 97.3% and 82.4% | 103% and 95.9% and 89.9% | 103% and 102% and 96.2% | 101% and 96.9% and 109% | 99.9% and 77.2% and 105% | 108% and 97.5% and 98% | > 10000 nM |  |  |  |  | 
14 | Cn1ncnc1[C@H]1c2n[nH]c(=O)c3cc(F)cc(c23)N[C@@H]1c1ccc(F)cc1 | 91.8% and 90.4% and 88.1% |  | 78.1% and 72.3% and 73.5% |  |  |  | > 316 nM | 91.3% and 88.8% and 87.1% | 107% and 96.2% and 77.8% | 96.3% and 99.6% and 107% | 80.6% and 91.5% and 75.3% | 
15 | Nc1ccn(C2OC(CO)C(O)C2(F)F)c(=O)n1 (stereo unspecified) | 87.9% and 88.9% and 93.4% | 66% and 76.8% and 74.1% | 61.7% and 70.3% and 61.1% | 51.8% and 55.9% and 40% | 41.4% and 48.6% and 40% | 40.8% and 39.7% and 38% | 993 nM and 2480 nM and 598 nM |  |  |  |  | 
16 | O=C(c1cc(Cc2n[nH]c(=O)c3ccccc23)ccc1F)N1CCN(C(=O)C2CC2)CC1 | 95.7% and 90.6% and 98.8% | 89.7% and 88.2% and 93.5% | 95.3% and 90.9% and 94% | 81.4% and 92.8% and 99.6% | 74% and 86.8% and 84% | 79.3% and 66.8% and 59% | > 10000 nM |  |  |  |  | 
17 | O=c1[nH]cc(F)c(=O)[nH]1 | 103% and 89.7% and 95.6% | 93.4% and 92.9% and 86.8% | 91% and 104% and 109% | 88% and 89.2% and 87.2% | 78.2% and 73.6% and 76.3% | 71.8% and 68.2% and 62.4% | > 10000 nM |  |  |  |  | 
